Assay results reported in publication doi:10.1101/153262v1 (biorxiv, 2017).

Target: T1, EiCsm6 (Enterococcus italicus, UniProt E6LHV2)
T1 sequence (E6LHV2 1-430): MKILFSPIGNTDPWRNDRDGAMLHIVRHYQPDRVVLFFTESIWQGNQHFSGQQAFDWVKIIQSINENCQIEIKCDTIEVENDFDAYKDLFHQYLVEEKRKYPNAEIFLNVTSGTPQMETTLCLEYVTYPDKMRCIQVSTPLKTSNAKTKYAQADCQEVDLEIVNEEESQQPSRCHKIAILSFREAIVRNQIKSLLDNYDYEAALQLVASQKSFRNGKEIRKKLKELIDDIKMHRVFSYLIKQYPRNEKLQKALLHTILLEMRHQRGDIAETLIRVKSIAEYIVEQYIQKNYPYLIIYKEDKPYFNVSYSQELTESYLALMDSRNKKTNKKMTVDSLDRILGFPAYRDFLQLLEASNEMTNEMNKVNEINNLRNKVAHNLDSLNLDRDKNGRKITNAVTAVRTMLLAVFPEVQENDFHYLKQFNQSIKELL
Experiment: fluorogenic RNase Alert cleavage, initial velocities, log
Type: biochemical
Settings: activator; allosteric, CARF domain; 20 mM HEPES pH 7.5, 50 mM KCl

**Q.** Which EC50 does the source give for `Nc1ncnc2c1ncn2[C@@H]1O[C@H](CO)[C@@H](OP(=O)(O)OC[C@H]2O[C@@H](n3cnc4c(N)ncnc43)[C@H](O)[C@@H]2OP(=O)(O)OC[C@H]2O[C@@H](n3cnc4c(N)ncnc43)[C@H](O)[C@@H]2OP(=O)(O)OC[C@H]2O[C@@H](n3cnc4c(N)ncnc43)[C@H](O)[C@@H]2OP(=O)(O)OC[C@H]2O[C@@H](n3cnc4c(N)ncnc43)[C@H](O)[C@@H]2OP(=O)(O)OC[C@H]2O[C@@H](n3cnc4c(N)ncnc43)[C@@H]3OP(=O)(O)O[C@@H]32)[C@H]1O` [A6>P, 2',3'-cyclic phosphate-terminated hexaadenylate] here?
**A.** ~60 nM
